# In PMC6535779, “A Specific, Glycomimetic Langerin Ligand for Human Langerhans Cell Targeting” (ACS Central Science, 2019):
# Legend:
# [1] = target: T1, Langerin extracellular domain (ECD) (Homo sapiens, UniProt Q9UJ71); experiment: 19F R2-filtered NMR reporter displacement assay with Langerin; type: binding; conditions: for Ki: 19F R2-filtered NMR, 0.1 mM reporter ligand 24, pH 7.8, 25 °C; for Relative potency, Langerin: calculated utilizing the KI value determined for GlcNAc
# T1 construct: the trimeric Langerin extracellular domain (ECD) was expressed insolubly in E; made in house
# T1 sequence (Q9UJ71 65-328 limits assumed): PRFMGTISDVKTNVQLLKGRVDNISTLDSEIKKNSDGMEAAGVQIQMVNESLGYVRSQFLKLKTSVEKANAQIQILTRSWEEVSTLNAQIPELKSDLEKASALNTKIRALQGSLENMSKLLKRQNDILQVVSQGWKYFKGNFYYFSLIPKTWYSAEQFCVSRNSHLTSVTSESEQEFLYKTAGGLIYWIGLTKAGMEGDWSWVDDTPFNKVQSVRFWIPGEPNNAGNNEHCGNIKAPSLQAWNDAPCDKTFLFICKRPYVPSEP
# Procedure: Receptor Expression and Purification
# General remarks. Codon-optimized genes for the expression of Langerin and DC-SIGN in E. coli were purchased from GenScript and Life Technologies, respectively. All growth media or chemicals used for receptor expression and purification were purchased from Carl Roth if not stated otherwise.
# Langerin extracellular domain. Expression and purification were conducted as previously published14. Briefly, the trimeric Langerin extracellular domain (ECD) was expressed insolubly in E. coli BL21* (DE3) (Invitrogen). Following enzymatic cell lysis, inclusion bodies were harvested and subsequently solubilized. The sample was centrifuged and the Langerin ECD was refolded overnight via rapid dilution. Next, the sample was dialyzed overnight, centrifuged and purified via mannan-agarose affinity chromatography (Sigma Aldrich). For 19F R2-filtered NMR and lipid-enzyme-linked lectin assay (Lipid-ELLA) experiments, the buffer was exchanged to 25 mM Tris with 150 mM NaCl and 5 mM CaCl2 at pH 7.8 using 7 kDa size-exclusion desalting columns (Thermo Scientific). For […]
# D2O, 150 mM NaCl and 5 mM CaCl2 at pH 7. The concentration of Langerin ECD was determined via UV spectroscopy (A280, 0.1% = 2.45). Purity and monodispersity of Langerin ECD samples were analyzed via SDS PAGE and DLS. […]
# General remarks. 19F R2-filtered NMR experiments were conducted on a PremiumCompact 600 MHz spectrometer (Agilent). Spectra were processed in MestReNova and data analysis was performed with OriginPro 13, 15. Experiments with the Langerin ECD were performed at a receptor concentration of 50 μM in 25 mM Tris with 10% D2O, 150 mM NaCl and 5 mM CaCl2 at pH 7.8 and 25° C. […]
# 10% D2O, 150 mM NaCl and 5 mM CaCl2 at pH 7.0 and 25°C. TFA served as an internal reference at a concentration of 50 μM. Apparent relaxation rates R2,obs for the reporter ligand were determined using the CPMG pulse sequence as previously published3-5. […]
# KI determination. KI values were determined as previously published for Langerin3. Briefly, titration experiments were conducted at a concentration of 0.1 mM of reporter ligand 24 at five competitor concentrations [I]T. Samples were prepared via serial dilution. For the acids GlcNS, GlcNAc-6-OS and GlcNS-6-OS the pH values were monitored and adjusted to 7.8 if necessary.
# General remarks. 15N HSQC NMR experiments were conducted on an Ascend 700 MHz spectrometer (Bruker)16. Spectra were processed in NMRPipe17. Data analysis was performed using CCPN Analysis, MatLab and OriginPro15, 18-19. Experiments with the Langerin CRD were performed at a receptor concentration of 100 μM in 25 mM HEPES with 10% D 2O, 150 mM NaCl and 5 mM CaCl2 at pH 7.8 and 25° C. DSS-d6 served as an internal reference at a concentration of 100 μM. Spectra were referenced via the internal spectrometer reference. Spectra were acquired with 128 increments and 32 scans per increments for 150 μl samples in 3 mm sample tubes. The relaxation delay d1 was set to 1.4 s and the acquisition time tacq was set to 100 ms. The W5 Watergate pulse sequence was used for solvent suppression20. The used resonance assignment for the Langerin CRD has been published […]
# KD determination. KD values were determined in titration experiments at six ligand concentrations [L]T. Samples were prepared via serial dilution. Chemical shift perturbations CSPs for Langerin CRD resonances in the fast or fast-to-intermediate exchange regime observed upon titration with ligand were calculated via Equation 121.
# [2] = tested on: Langerin^+ THP-1 cells; experiment: Colorimetric cytotoxicity assay, Langerin+ THP-1 cells; type: cell-based, human; conditions: doxorubicin encapsulated in liposomes or free, 48 h
# Procedure: (§1) the PEG-DSPE was substituted with glycolipids 22 or 23 at varying ratios. PEG-DSPE (3.0 kDa, NOF Europe), 22 or 23 were dissolved in DMSO, added to a round bottom flask and lyophilized. Next, DSPC (NOF Europe) and cholesterol (Sigma Aldrich) were dissolved in chloroform, added to the test tube and the solvent was removed in vacuo. The residue was dissolved in PBS and the mixture was vortexed and sonicated repeatedly until a homogeneous suspension was obtained. Unilamellar liposomes were prepared using a pore extruder (Avanti Polar Lipids) with polycarbonate membranes of 800, 400, 200 and finally 100 nm pore size (Avanti Polar Lipids). […]
# (§2) The Lipid-ELLA was conducted as previously published35. […] Binding of the Langerin ECD was detected via absorbance A450 measurements at 450 nm using a SpectraMax spectrometer (Molecular Devices) in three independent titrations.
# (§3) CO2. […] After centrifugation at 400 g for 5 min the supernatant was analyzed in the TNF-α ELISA. […]
# (§4) To assess the cytotoxicity of doxorubicin-containing liposomes with THP-1 cells, 50,000 cells per well were added to 96 well microtiter plates (Corning) and incubated in presence of liposomes at a given total lipid concentration [Lipid]T in a final volume of 100 μl for 48 h at 37°C and 5% CO2. Cell viability was analyzed using CellTiter 96 (Promega) by measuring formazan absorbance at 490 nm. […]
# [3] = tested on: Langerin^– THP-1 cells; experiment: Colorimetric cytotoxicity assay, Langerin- THP-1 cells; type: cell-based, human; conditions: doxorubicin encapsulated in liposomes or free, 48 h
# Procedure: as §1, §2, §3, §4
Ki [1] [µM],"Relative potency, Langerin [1]","affinity increase over Man-based reference molecule 21 ([1]; from KI values, Langerin, b47 words it as over natural glycans) [fold]",SMILES,killing of Langerin^+ THP-1 cells [2],killing of Langerin^– THP-1 cells [3]
4100 ± 700,1.0,,"CC(=O)N[C@@H]1[C@@H](O)[C@H](O)[C@@H](CO)O[C@H]1O [GlcNAc, N-acetyl glucosamine]",,
600 ± 100,6.8,,"CC(=O)N[C@H]1C(O)O[C@H](COS(=O)(=O)O)[C@@H](O)[C@@H]1O (stereo partly shown) [GlcNAc-6-OS, N-acetyl glucosamine-6-sulfate]",,
1400 ± 200,2.9,,"O=S(=O)(O)N[C@H]1C(O)O[C@H](CO)[C@@H](O)[C@@H]1O (stereo partly shown) [GlcNS, glucosamine-2-sulfate]",,
280 ± 60,14,,"O=S(=O)(O)N[C@H]1C(O)O[C@H](COS(=O)(=O)O)[C@@H](O)[C@@H]1O (stereo partly shown) [GlcNS-6-OS, glucosamine-2-sulfate-6-sulfate]",,
21000 ± 4000,0.20,,OC[C@H]1OC(O)[C@H](O)[C@@H](O)[C@@H]1O (stereo partly shown) [Glc],,
,,42,Cc1ccc(S(=O)(=O)N[C@H]2[C@H](OCCN)O[C@H](CO)[C@@H](O)[C@@H]2O)cc1 [compound 15],,
,,,"COc1cccc2c1C(=O)c1c(O)c3c(c(O)c1C2=O)C[C@@](O)(C(=O)CO)C[C@@H]3O[C@H]1C[C@H](N)[C@H](O)[C@H](C)O1 [free doxorubicin, doxorubicin]",killed both Langerin^+ and Langerin^– cells,killed both Langerin^+ and Langerin^– cells
